From ChEMBL document CHEMBL1201862, “PubChem BioAssay data set” (2004)
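Grown in 96-well plates, cells were treated for 48 hours with each compound at five concentrations. Insufficient inhibition: endpoint recorded as highest concentration tested. At the GI50, growth is halved.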 Calls of active or inactive are those of the source. Rule as the data show it: active = GI50 up to about 1.1 µM and inactive = higher.

Legend:
Experiment in all cases: NCI-60 cell line screen, 48 h
MDA-MB-231 = test system: MDA-MB-231
MOLT-4 = test system: MOLT-4
SNB-75 = test system: SNB-75
RPMI-8226 = test system: RPMI-8226
HL-60 = test system: HL-60
CAKI-1 = test system: CAKI-1
RXF 393 = test system: RXF 393
MCF7 = test system: MCF7
LOX IMVI = test system: LOX IMVI
OVCAR-4 = test system: OVCAR-4
NCI-H226 = test system: NCI-H226
PC-3 = test system: PC-3
HCT-15 = test system: HCT-15
MDA-MB-435 = test system: MDA-MB-435
OVCAR-8 = test system: OVCAR-8
MDA-N = test system: MDA-N
SNB-19 = test system: SNB-19
BT-549 = test system: BT-549
SN12C = test system: SN12C
A498 = test system: A498

Row | SMILES | GI50 (MDA-MB-231) | GI50 (MOLT-4) | GI50 (SNB-75) | GI50 (RPMI-8226) | GI50 (HL-60) | GI50 (CAKI-1) | GI50 (RXF 393) | GI50 (MCF7) | GI50 (LOX IMVI) | GI50 (OVCAR-4) | GI50 (NCI-H226) | GI50 (PC-3) | GI50 (HCT-15) [µM] | GI50 (MDA-MB-435) | GI50 (OVCAR-8) | GI50 (MDA-N) | GI50 (SNB-19) | GI50 (BT-549) | GI50 (SN12C) | GI50 (A498)
1 | CCN(CC)c1ccc2cc(C(N)=S)c(=N)oc2c1 | > 100 µM (inactive) | > 100 µM (inactive) | > 100 µM (inactive) | > 100 µM (inactive) | > 100 µM (inactive) | > 100 µM (inactive) | > 100 µM (inactive) | > 100 µM (inactive) | > 100 µM (inactive) | > 100 µM (inactive) | > 100 µM (inactive) | > 100 µM (inactive) | > 100 | > 100 µM (inactive) | > 100 µM (inactive) | > 100 µM (inactive) | > 100 µM (inactive) | 37.9 µM (inactive) | > 100 µM (inactive) | 
2 | O=C(/C=C\Nc1ccccc1O)C(F)(F)F | > 100 µM (inactive) | 31.7 µM (inactive) | > 100 µM (inactive) | 15.5 µM (inactive) | 16.6 µM (inactive) | 68.1 µM (inactive) | > 100 µM (inactive) | 43.9 µM (inactive) | 95.3 µM (inactive) | 71.9 µM (inactive) | > 100 µM (inactive) | 37.3 µM (inactive) | 40.8 | 60.1 µM (inactive) | 90.4 µM (inactive) | 43 µM (inactive) | > 100 µM (inactive) | > 100 µM (inactive) | 54.8 µM (inactive) | 
3 | O=[N+]([O-])C(=C1Nc2ccccc2N1)/C(Cl)=C(/Cl)N1CCOCC1 | 36.1 µM (inactive) | 17.4 µM (inactive) | 97.7 µM (inactive) | 57.7 µM (inactive) |  | > 100 µM (inactive) |  | 45.8 µM (inactive) |  | 25.4 µM (inactive) | > 100 µM (inactive) | 87.7 µM (inactive) | 31.8 | > 100 µM (inactive) | 28.8 µM (inactive) | > 100 µM (inactive) | > 100 µM (inactive) | 27.5 µM (inactive) | > 100 µM (inactive) | > 100 µM (inactive)
4 | COc1cc(OC)c2c(c1-c1ccc(C)cc1)CC(C)N(Cc1ccccc1)[C@H]2C (some centres not stated) | 51.3 µM (inactive) | 23.6 µM (inactive) | 6.9 µM (inactive) | 13.5 µM (inactive) | 12.2 µM (inactive) | 63.8 µM (inactive) |  | 28.5 µM (inactive) | 36.2 µM (inactive) |  | 49.4 µM (inactive) | 36.1 µM (inactive) | 35.9 | 33.3 µM (inactive) | 39.4 µM (inactive) | 33.7 µM (inactive) | 67.9 µM (inactive) | 28.2 µM (inactive) | 35.9 µM (inactive) | 87.7 µM (inactive)
5 | OCCN(CO)CO | > 100 µM (inactive) |  | > 100 µM (inactive) | 86.5 µM (inactive) |  | > 100 µM (inactive) | > 100 µM (inactive) | > 100 µM (inactive) |  | > 100 µM (inactive) | > 100 µM (inactive) | > 100 µM (inactive) | > 100 | > 100 µM (inactive) | > 100 µM (inactive) | > 100 µM (inactive) | > 100 µM (inactive) | > 100 µM (inactive) | > 100 µM (inactive) | > 100 µM (inactive)
6 | O=C1C=CC2CCC1C2 (configuration not stated) | 28.6 µM (inactive) | 26.4 µM (inactive) | 27.5 µM (inactive) | 34 µM (inactive) | 19.2 µM (inactive) | 27.5 µM (inactive) |  | 31.1 µM (inactive) | 29.4 µM (inactive) |  | 39.4 µM (inactive) | 45 µM (inactive) | 18.2 | 17.2 µM (inactive) | 28.7 µM (inactive) | 25 µM (inactive) | 28.4 µM (inactive) | 21.4 µM (inactive) | 30.4 µM (inactive) | 90.2 µM (inactive)
7 | COC(=O)c1sc2ncc3c(c2c1N)CC(C)CC3 (configuration not stated) | > 100 µM (inactive) | > 100 µM (inactive) | 41.4 µM (inactive) | > 100 µM (inactive) |  | > 100 µM (inactive) | 70.6 µM (inactive) | > 100 µM (inactive) | 71.3 µM (inactive) | > 100 µM (inactive) | > 100 µM (inactive) | > 100 µM (inactive) | > 100 | > 100 µM (inactive) |  | > 100 µM (inactive) | > 100 µM (inactive) | > 100 µM (inactive) | > 100 µM (inactive) | > 100 µM (inactive)
8 | O=C(O)c1ccccc1/C=N/N=C1c2ccccc2-c2ccccc21 | 59 µM (inactive) | 22.5 µM (inactive) |  | 20.2 µM (inactive) | 28.8 µM (inactive) | 35.3 µM (inactive) | 29 µM (inactive) | 31.2 µM (inactive) | 37.7 µM (inactive) | 35.2 µM (inactive) | 20.8 µM (inactive) | 30.3 µM (inactive) | 44.8 | 29.9 µM (inactive) | 44.9 µM (inactive) | 37.5 µM (inactive) | 39.9 µM (inactive) | 71.9 µM (inactive) | 28.2 µM (inactive) | 68.4 µM (inactive)
9 | COc1cc(C(=O)/C=C/c2ccc(OCCSCCCCCCCCCCSCCOc3ccc(/C=C/C(=O)c4cc(OC)c(OC)c(OC)c4)cc3)cc2)cc(OC)c1OC | > 100 µM (inactive) | > 100 µM (inactive) | > 100 µM (inactive) | > 100 µM (inactive) | > 100 µM (inactive) | > 100 µM (inactive) | > 100 µM (inactive) | > 100 µM (inactive) | > 100 µM (inactive) |  |  | > 100 µM (inactive) | > 100 | > 100 µM (inactive) | > 100 µM (inactive) | > 100 µM (inactive) | > 100 µM (inactive) | > 100 µM (inactive) | > 100 µM (inactive) | > 100 µM (inactive)
10 | C=C(C)[C@@H]1CC[C@]2(C(=O)O)CC[C@]3(C)[C@H](CC[C@@H]4[C@@]5(C)CC[C@H](C(=O)/C=C/c6ccc(O)cc6)C(C)(C)[C@@H]5CC[C@]43C)[C@@H]12 | 6.65 µM (inactive) | 2.85 µM (inactive) | > 10 µM (inactive) |  | 1.15 µM (inactive) | 2.64 µM (inactive) | 6.41 µM (inactive) | 3.67 µM (inactive) | 3.54 µM (inactive) | 9.98 µM (inactive) |  | 5.98 µM (inactive) | 3.45 | 7.67 µM (inactive) | 4.3 µM (inactive) | 4.72 µM (inactive) | 6.92 µM (inactive) | 10.4 µM (inactive) | 3.05 µM (inactive) | 5.07 µM (inactive)
11 | C=CCOc1ccc(C(=N/NC(=O)c2ccccc2)/N=N/c2ccccc2)cc1OC | 70.6 µM (inactive) | 42.6 µM (inactive) | > 100 µM (inactive) |  | 37.8 µM (inactive) | > 100 µM (inactive) | > 100 µM (inactive) | > 100 µM (inactive) | 42.1 µM (inactive) | 89.9 µM (inactive) | 60.5 µM (inactive) | 79.1 µM (inactive) | 63.8 | > 100 µM (inactive) | 65.3 µM (inactive) | > 100 µM (inactive) | > 100 µM (inactive) | 42.5 µM (inactive) | > 100 µM (inactive) | > 100 µM (inactive)
12 | S=c1oc(CCCCCCCCc2nn(CNc3ccc(Cl)cc3)c(=S)o2)nn1CNc1ccc(Cl)cc1 | > 100 µM (inactive) | > 100 µM (inactive) | > 100 µM (inactive) | 6.78 µM (inactive) |  | 33.8 µM (inactive) | > 100 µM (inactive) | > 100 µM (inactive) |  | > 100 µM (inactive) | > 100 µM (inactive) | 29.3 µM (inactive) | > 100 | 10.4 µM (inactive) |  | 43.4 µM (inactive) | > 100 µM (inactive) | > 100 µM (inactive) | > 100 µM (inactive) | > 100 µM (inactive)
13 | O=C(Nc1ccc2ncccc2c1)Nc1ccc2ncccc2c1 | > 100 µM (inactive) | > 100 µM (inactive) | > 100 µM (inactive) | > 100 µM (inactive) |  | > 100 µM (inactive) | > 100 µM (inactive) | > 100 µM (inactive) | > 100 µM (inactive) | > 100 µM (inactive) | > 100 µM (inactive) | > 100 µM (inactive) | > 100 | > 100 µM (inactive) | > 100 µM (inactive) | > 100 µM (inactive) | > 100 µM (inactive) | > 100 µM (inactive) | > 100 µM (inactive) | > 100 µM (inactive)
14 | COc1ccc(OC)c(N2C(=O)CSC2c2cc(OC)c(OC)c(OC)c2)c1 (configuration not stated) | > 100 µM (inactive) | > 100 µM (inactive) |  | > 100 µM (inactive) | > 100 µM (inactive) | > 100 µM (inactive) |  | 71.1 µM (inactive) | > 100 µM (inactive) | > 100 µM (inactive) | > 100 µM (inactive) | > 100 µM (inactive) | 98.4 | 29.8 µM (inactive) | > 100 µM (inactive) | 33.4 µM (inactive) | > 100 µM (inactive) | 48.4 µM (inactive) | > 100 µM (inactive) | > 100 µM (inactive)
15 | OCC(CN1CCCCC1)(CN1CCCCC1)CN1CCCCC1 | > 100 µM (inactive) | > 100 µM (inactive) |  |  | > 100 µM (inactive) | > 100 µM (inactive) | > 100 µM (inactive) | > 100 µM (inactive) | > 100 µM (inactive) | > 100 µM (inactive) | > 100 µM (inactive) | > 100 µM (inactive) | > 100 | > 100 µM (inactive) | > 100 µM (inactive) | > 100 µM (inactive) | > 100 µM (inactive) | > 100 µM (inactive) | > 100 µM (inactive) | > 100 µM (inactive)
